Assay results published in patent US20230081390A1, “INHIBITORS OF RAF KINASES” (Kinnate Biopharma Inc., priority 2019, published 2023).

biological target: human RAF1 (Homo sapiens, UniProt P04049); experiment: Protein kinase assay (33P-ATP filter binding), human RAF1, 10-dose IC50; format: biochemical; settings: MEK1 (K97R) substrate 3 micromolar, ATP 10 micromolar, read-out: RAF-1 IC50
Procedure, shortened: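 Radiometric filter-binding format: 10 µM ATP, 3 µM MEK1 (K97R) as substrate for human RAF1, 2 hr at room temperature in 20 mM HEPES pH 7.5 with 10 mM MgCl2. Compounds were dispensed acoustically from DMSO. IC50 came from percent kinase activity relative to vehicle over a 10-dose series.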

Sequence of human RAF1 (P04049 whole entry): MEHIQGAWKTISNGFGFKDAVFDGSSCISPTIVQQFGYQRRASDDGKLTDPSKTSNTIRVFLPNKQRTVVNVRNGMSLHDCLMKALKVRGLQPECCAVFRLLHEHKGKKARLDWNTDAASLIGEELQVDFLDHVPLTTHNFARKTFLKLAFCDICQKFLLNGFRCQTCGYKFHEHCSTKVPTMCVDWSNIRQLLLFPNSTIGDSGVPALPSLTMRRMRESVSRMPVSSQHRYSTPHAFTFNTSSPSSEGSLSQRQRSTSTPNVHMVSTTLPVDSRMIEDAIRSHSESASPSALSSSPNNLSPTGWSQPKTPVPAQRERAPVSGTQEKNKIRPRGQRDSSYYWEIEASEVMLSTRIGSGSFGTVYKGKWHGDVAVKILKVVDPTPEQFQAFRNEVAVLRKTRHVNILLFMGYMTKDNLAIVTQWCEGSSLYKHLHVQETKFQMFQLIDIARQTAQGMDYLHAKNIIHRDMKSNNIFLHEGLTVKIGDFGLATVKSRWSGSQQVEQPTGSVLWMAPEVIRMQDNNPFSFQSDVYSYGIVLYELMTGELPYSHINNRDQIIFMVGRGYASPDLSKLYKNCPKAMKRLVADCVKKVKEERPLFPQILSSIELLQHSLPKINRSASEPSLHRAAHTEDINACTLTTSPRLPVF

First: Cc1cc(F)c(NC(=O)N2CC3C(C2)C3(F)F)cc1-c1cc(OCCO)nc(N2CCOCC2)c1 (stereo not shown) [Example 28, 6,6-difluoro-N-[2-fluoro-5-[2-(2-hydroxyethoxy)-6-(morpholin-4-yl)pyridin-4-yl]-4-mehtylphenyl]-3-azabicyclo[3.1.0]hexane-3-carboxamide]
Second: Cc1cc(F)c(NC(=O)N2C[C@@H](N)C[C@@H](C(F)(F)F)C2)cc1-c1cc(OCCO)nc(N2CCOCC2)c1 [Example 40, (3S,5R)-3-amino-N-[2-fluoro-5-[2-(2-hydroxyethoxy)-6-(morpholin-4-yl)pyridin-4-yl]-4-methylphenyl]-5-(trifluoromethyl)piperidine-1-carboxamide]
The IC50 of the first is higher: 0.01 to 0.1 µM for the first, less than 0.01 µM for the second. The second is the more potent here.

`Cc1cc(F)c(NC(=O)NCC(F)(F)C(F)(F)F)cc1-c1cc(OCCO)nc(N2CCOCC2)c1` [Example 35, 1-[2-fluoro-5-[2-(2-hydroxyethoxy)-6-(morpholin-4-yl)pyridin-4-yl]-4-methylphenyl]-3-(2,2,3,3,3-pentafluoropropyl)urea] and `Cc1cc(F)c(NC(=O)NC(C)CC(F)(F)F)cc1-c1cc(OCCO)nc(N2CCOCC2)c1` (stereo not shown) [Example 57, 1-[2-fluoro-5-[2-(2-hydroxyethoxy)-6-(morpholin-4-yl)pyridin-4-yl]-4-methylphenyl]-3-(4,4,4-trifluorobutan-2-yl)urea] cannot be ordered by IC50: less than 0.01 µM for the first, less than 0.01 µM for the second.

`Cc1cc(F)c(NC(=O)N2CC[C@H](CC(F)(F)F)C2)cc1-c1cc(OCCO)nc(N2CCOCC2)c1` [Example 36, (3R)-N-[2-fluoro-5-[2-(2-hydroxyethoxy)-6-(morpholin-4-yl)pyridin-4-yl]-4-methylphenyl]-3-(2,2,2-trifluoroethyl)pyrrolidine-1-carboxamide] and `Cc1cc(F)c(NC(=O)N2CCC(C(O)C(F)(F)F)C2)cc1-c1cc(OCCO)nc(N2CCOCC2)c1` (stereo not shown) [Example 76, N-[2-fluoro-5-[2-(2-hydroxyethoxy)-6-(morpholin-4-yl)pyridin-4-yl]-4-methylphenyl]-3-(2,2,2-trifluoro-1-hydroxyethyl)pyrrolidine-1-carboxamide] cannot be ordered by IC50: less than 0.01 µM for the first, less than 0.01 µM for the second.

`Cc1cc(F)c(NC(=O)N2CCCC3(CCC3)C2)cc1-c1cc(OCCO)nc(N2CCOCC2)c1` [Example 38, N-[2-fluoro-5-[2-(2-hydroxyethoxy)-6-(morpholin-4-yl)pyridin-4-yl]-4-methylphenyl]-6-azaspiro[3.5]nonane-6-carboxamide] and `Cc1cc(F)c(NC(=O)N2CCC3(CCCC3)C2)cc1-c1cc(OCCO)nc(N2CCOCC2)c1` [Example 73, N-(2-fluoro-5-(2-(2-hydroxyethoxy)-6-morpholinopyridin-4-yl)-4-methylphenyl)-2-azaspiro[4.4]nonane-2-carboxamide] cannot be ordered by IC50: less than 0.01 µM for the first, less than 0.01 µM for the second.

`Cc1cc(F)c(NC(=O)N2CCC3(COC3)C2)cc1-c1cc(OCCO)nc(N2CCOCC2)c1` [Example 41, N-[2-fluoro-5-[2-(2-hydroxyethoxy)-6-(morpholin-4-yl)pyridin-4-yl]-4-methylphenyl]-2-oxa-6-azaspiro[3.4]octane-6-carboxamide] and `Cc1cc(F)c(NC(=O)N2CCCCC(F)(F)C2)cc1-c1cc(OCCO)nc(N2CCOCC2)c1` [Example 46, 3,3-difluoro-N-[2-fluoro-5-[2-(2-hydroxyethoxy)-6-(morpholin-4-yl)pyridin-4-yl]-4-methylphenyl]azepane-1-carboxamide] fall in the same range of IC50: 0.01 to 0.1 µM for the first, 0.01 to 0.1 µM for the second.

`COC1(C(F)(F)F)CCCN(C(=O)Nc2cc(-c3cc(OCCO)nc(N4CCOCC4)c3)c(C)cc2F)C1` (stereo not shown) [Example 42, N-[2-fluoro-5-[2-(2-hydroxyethoxy)-6-(morpholin-4-yl)pyridin-4-yl]-4-methylphenyl]-3-methoxy-3-(trifluoromethyl)piperidine-1-carboxamide] and `Cc1cc(F)c(NC(=O)N2CCCC(N)(C(F)(F)F)C2)cc1-c1cc(OCCO)nc(N2CCOCC2)c1` (stereo not shown) [Example 54, 3-amino-N-[2-fluoro-5-[2-(2-hydroxyethoxy)-6-(morpholin-4-yl)pyridin-4-yl]-4-methylphenyl]-3-(trifluoromethyl)piperiidne-1-carboxamide] cannot be ordered by IC50: less than 0.01 µM for the first, less than 0.01 µM for the second.

`Cc1cc(F)c(NC(=O)NC2CC2C(F)(F)F)cc1-c1cc(OCCO)nc(N2CCOCC2)c1` (stereo not shown) [Example 43, 1-[2-fluoro-5-[2-(2-hydroxyethoxy)-6-(morpholin-4-yl)pyridin-4-yl]-4-methylphenyl]-3-[2-(trifluoromethyl)cyclopropyl]urea] and `Cc1cc(F)c(NC(=O)NCC2(C(F)(F)F)CCC2)cc1-c1cc(OCCO)nc(N2CCOCC2)c1` [Example 49, 1-[2-fluoro-5-[2-(2-hydroxyethoxy)-6-(morpholin-4-yl)pyridin-4-yl]-4-methylphenyl]-3-[[1-(trifluoromethyl)cyclobutyl]methyl]urea] cannot be ordered by IC50: less than 0.01 µM for the first, less than 0.01 µM for the second.

`Cc1cc(F)c(NC(=O)N2C[C@@H](O)C[C@@H](C(F)(F)F)C2)cc1-c1cc(OCCO)nc(N2CCOCC2)c1` [Example 44, (3S,5R)-N-[2-fluoro-5-[2-(2-hydroxyethoxy)-6-(morpholin-4-yl)pyridin-4-yl]-4-methylphenyl]-3-hydroxy-5-(trifluoromethyl) piperidine-1-carboxamide] and `Cc1cc(F)c(NC(=O)N2C[C@H](N)C[C@H](C(F)(F)F)C2)cc1-c1cc(OCCO)nc(N2CCOCC2)c1` [Example 55, (3R,5S)-3-amino-N-[2-fluoro-5-[2-(2-hydroxyethoxy)-6-(morpholin-4-yl)pyridin-4-yl]-4-methylphenyl]-5-(trifluoromethyl)piperidine-1-carboxamide] cannot be ordered by IC50: less than 0.01 µM for the first, less than 0.01 µM for the second.

`Cc1cc(F)c(NC(=O)N2CCC(CF)(C(F)(F)F)C2)cc1-c1cc(OCCO)nc(N2CCOCC2)c1` (stereo not shown) [Example 45, N-[2-fluoro-5-[2-(2-hydroxyethoxy)-6-(morpholin-4-yl)pyridin-4-yl]-4-methylphenyl]-3-(fluoromethyl)-3-(trifluoromethyl)pyrrolidine-1-carboxamide] and `Cc1cc(F)c(NC(=O)N2CCC(F)(F)C(C(F)(F)F)C2)cc1-c1cc(OCCO)nc(N2CCOCC2)c1` (stereo not shown) [Example 104, 4,4-difluoro-N-[2-fluoro-5-[2-(2-hydroxyethoxy)-6-(morpholin-4-yl)pyridin-4-yl]-4-methylphenyl]-3-(trifluoromethyl)piperidine-1-carboxamide] cannot be ordered by IC50: less than 0.01 µM for the first, less than 0.01 µM for the second.

`Cc1cc(F)c(NC(=O)N2CC=C(C(F)(F)F)C2)cc1-c1cc(OCCO)nc(N2CCOCC2)c1` [Example 72, N-[2-fluoro-5-[2-(2-hydroxyethoxy)-6-(morpholin-4-yl)pyriidn-4-yl]-4-methylphenyl]-3-(trifluoromethyl)-2,5-dihydropyrrole-1-carboxamide] and `Cc1cc(F)c(NC(=O)N2CC=C(C(F)(F)C(F)(F)F)C2)cc1-c1cc(OCCO)nc(N2CCOCC2)c1` [Example 79, N-[2-fluoro-5-[2-(2-hydroxyethoxy)-6-(morpholin-4-yl)pyridin-4-yl]-4-methylphenyl]-3-(1,1,2,2,2-pentafluoroethyl)-2,5-dihydropyrrole-1-carboxamide] cannot be ordered by IC50: less than 0.01 µM for the first, less than 0.01 µM for the second.

`Cc1cc(F)c(NC(=O)N2CCO[C@@H](C(F)(F)F)C2)cc1-c1cnc(OC2CCOCC2)c(N2CCOCC2)c1` [Example 87, (2R)-N-[2-fluoro-4-methyl-5-[5-(morpholin-4-yl)-6-(oxan-4-yloxy)pyridin-3-yl]phenyl]-2-(trifluoromethyl)morpholine-4-carboxamide] and `Cc1cc(F)c(NC(=O)N2CC/C(=C/C(F)(F)F)C2)cc1-c1cc(OCCO)nc(N2CCOCC2)c1` [Example 92, (Z)-N-(2-fluoro-5-(2-(2-hydroxyethoxy)-6-morpholinopyridin-4-yl)-4-methylphenyl)-3-(2,2,2-trifluoroethylidene)pyrrolidine-1-carboxamide] cannot be ordered by IC50: less than 0.01 µM for the first, less than 0.01 µM for the second.

`Cc1cc(F)c(NC(=O)N2CC/C(=C\C(F)(F)F)C2)cc1-c1cc(OCCO)nc(N2CCOCC2)c1` [Example 93, (E)-N-(2-fluoro-5-(2-(2-hydroxyethoxy)-6-morpholinopyridin-4-yl)-4-methylphenyl)-3-(2,2,2-trifluoroethylidene)pyrrolidine-1-carboxamide] and `C/C(=C1\CCN(C(=O)Nc2cc(-c3cc(OCCO)nc(N4CCOCC4)c3)c(C)cc2F)C1)C(F)(F)F` [Example 94, (3Z)-N-[2-fluoro-5-[2-(2-hydroxyethoxy)-6-(morpholin-4-yl)pyridin-4-yl]-4-methylphenyl]-3-(1,1,1-trifluoropropan-2-ylidene)pyrrolidine-1-carboxamide] cannot be ordered by IC50: less than 0.01 µM for the first, less than 0.01 µM for the second.

`C/C(=C1/CCN(C(=O)Nc2cc(-c3cc(OCCO)nc(N4CCOCC4)c3)c(C)cc2F)C1)C(F)(F)F` [Example 95, (3E)-N-[2-fluoro-5-[2-(2-hydroxyethoxy)-6-(morpholin-4-yl)pyridin-4-yl]-4-methylphenyl]-3-(1,1,1-trifluoropropan-2-ylidene)pyrrolidine-1-carboxamide] and `C/C(C#N)=C1/CCN(C(=O)Nc2cc(-c3cc(OCCO)nc(N4CCOCC4)c3)c(C)cc2F)C1` [Example 98, (3E)-3-(1-cyanoethylidene)-N-[2-fluoro-5-[2-(2-hydroxyethoxy)-6-(morpholin-4-yl)pyridin-4-yl]-4-methylphenyl]pyrrolidine-1-carboxamide] cannot be ordered by IC50: less than 0.01 µM for the first, less than 0.01 µM for the second.

`Cc1cc(F)c(NC(=O)N2CC=C(CC(F)(F)F)C2)cc1-c1cc(OCCO)nc(N2CCOCC2)c1` [Example 96, N-[2-fluoro-5-[2-(2-hydroxyethoxy)-6-(morpholin-4-yl)pyridin-4-yl]-4-methylphenyl]-3-(2,2,2-trifluoroethyl)-2,5-dihydropyrrole-1-carboxamide] and `Cc1cc(F)c(NC(=O)N2CCC(C(C)(C)C#N)C2)cc1-c1cc(OCCO)nc(N2CCOCC2)c1` (stereo not shown) [Example 99, 3-(1-cyano-1-methylethyl)-N-[2-fluoro-5-[2-(2-hydroxyethoxy)-6-(morpholin-4-yl)pyridin-4-yl]-4-methylphenyl]pyrrolidine-1-carboxamide] cannot be ordered by IC50: less than 0.01 µM for the first, less than 0.01 µM for the second.
